Tested on: E18 rat primary cortical neurons
Assay: Glutamate-induced excitotoxic cell death (LDH release and MTT reduction assays)
Format: cell-based
From the text: Lactate dehydrogenase (LDH) release and 3-(4,5-dimethylthiazol-2-yl)-2,5-diphenyltetrazolium bromide (MTT) reduction assays were used to measure cell death. NeuroPureTM E18 primary rat cortical cells were commercially procured (Catalogue # N200200, Genlantis, San Diego, Calif., USA) as micro-surgically dissected regions from day 18 embryonic Sprague-Dawley rat brain. The tissues were processed for culturing according to manufacturer specifications. Briefly, enzymatic pre-treatment of the tissue was done prior to mechanical dissociation by incubating the tissues in sterile NeuroPapain enzyme solution at 30° C. for 30 minutes. Following incubation, the cells were centrifuged and transferred to fresh plating medium, where they were then dissociated into isolated neurons using a P-1000 pipettor with a sterile 1 ml plastic tip (0.8-1.0 mm diameter opening). The cells were again centrifuged and seeded in multi-well plates pre-coated with poly-D-lysine (0.15 ml/cm^2, 50 μg/ml) and maintained at 37° C. in a humidified 5% CO2 atmosphere. All experiments were performed after 9-10 days in culture. Twenty-four hours before glutamate exposure, cultures were pre-treated with both PROG (Cat. #P3972; Sigma Aldrich, St. Louis, Mo., USA) and VDH(Cat. #D1530; Sigma) separately or in combination with VDH at various concentrations. Stock solutions of PROG and VDH were prepared in dimethylsulfoxide (DMSO; Cat. #D2650; […] Glutamate was diluted in phosphate-buffered saline (PBS, pH 7.4). All reagents were filter sterilized before being added to cultures. At Day 11, cortical neurons in fresh media were separated into five treatment groups: (i) control; (ii) 24 hour treatment with 0.5 μM glutamate (Sribnick E A, et al., (2004) J Neurosci Res 76: 688-696); ([…]) with subsequent exposure to glutamate for 24 hours; (iv) 24 hour pre-treatment with VDH (1, 5, 10, 20, 40, 80, 100 nM) with subsequent exposure to glutamate for 24 hours; (v) 24 hour pre-treatment with different combinations of PROG and […]: 20 μM+VDH: 1, 5, 10, 20, 40, 80, 100 nM) with subsequent exposure to glutamate for 24 hours. Two widely accepted assays (LDH release and MTT reduction assay) for the measurement of cell viability were used. These assays are considered very reliable and reproducible with high predictive validity and are widely used in various pharmacological studies ([…], et al., (2002) Endocrinology 143: 205-212.). The LDH assay was performed as follows. […] LDH activity was measured using a Cytotoxicity Detection Kit (Roche Molecular Biochemicals, Indianapolis, Ind., USA) and quantitated by measuring absorbance at 490 nm. Data were normalized against the amount of LDH activity released from vehicle-treated control cultures receiving no glutamate. Neuronal death was also assessed by MTT [3-(4,5-dimethylthiazol-2-yl)-2,5-diphenyltetrazolium bromide] assay, which is based on the cleavage of the tetrazolium ring of the pale yellow MTT into dark blue formazan crystals by mitochondrial dehydrogenase enzyme in viable cells. These blue formazan crystals accumulate within the cells due to their impermeability to cell membrane, and are then solubilized by adding DMSO. The intensity of blue colored formazan solution is directly proportional to the number of surviving cells. Concentrations were determined by photometric analysis. Briefly, 10 μl of MTT were added per well and incubated at 37° C. for 4 hours until purple precipitate was visible. DMSO (50 μl) was added to solubilize the crystals and the absorbance was read at 570 nm.

With `CC(=O)[C@H]1CCC2C3CCC4=CC(=O)CC[C@]4(C)C3CC[C@@]21C` (stereo partly drawn) [progesterone] as the compound, how does the “best (most effective) concentration alone against glutamate-induced neuronal death” value (LDH and MTT assays) read?
Its value is 20 µM.

What about the “glutamate-induced cell death compared to vehicle-only group” value (PROG at higher concentrations (10, 20, 40, and 80 μM), LDH and MTT assays, P<0.001) of the same compound?
The value was “significant reduction”.

What about the “glutamate-induced cell death compared to vehicle-only group” value (PROG at lower concentrations (0.01, 0.1, 1, 5 μM), 24 h pre-treatment, glutamate 0.5 μM 24 h) of the same compound?
The value was “did not show any decrease in cell death”.

— patent publication US20110306579A1, “METHODS OF NEUROPROTECTION USING NEUROPROTECTIVE STEROIDS AND A VITAMIN D” (EMORY UNIVERSITY, priority 2009, published 2011)
